The source of these data is patent publication US20260356851A1, “TRICYCLIC COMPOUNDS AND USES THEREOF” (HUTCHMED LIMITED, priority 2023, published 2026).

What all share (type): cell-based
For assay [1], the target named is T1, pERK1/2 (Thr202/Tyr204), NCI-1H358 (KRAS G12C) (Homo sapiens, UniProt P01116, G12C).
T1 construct: pERK1/2 HTRF read-out
Nature of the assay: Assay of intracellular pERK1/2 (Thr202/Tyr204) phosphorylation in NCI-H358 cells (KRAS G12C). The note with it: pERK1/2, 2 days, read-out: NCI-H358 (KRAS G12C) IC50. The essentials:
(§1)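 HTRF detection of Thr202/Tyr204-phosphorylated ERK1/2 (665/615 nm ratio) in lysates from cells treated 2 days with serially 3-fold diluted compound.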

The target of assay [2] is T2, pERK1/2 (Thr202/Tyr204), PANC-1 (KRAS G121D) (Homo sapiens, UniProt P01116, G12D).
T2 construct: pERK1/2 HTRF read-out
Description: Assay of intracellular pERK1/2 (Thr202/Tyr204) phosphorylation in PANC-1 cells (KRAS G12D). The conditions noted are these: pERK1/2, 2 days, read-out: PANC-1 (KRAS G12D) IC50. An outline of the steps: as §1

Assay [3] deals with T3, pERK1/2 (Thr202/Tyr204), NCI-1H441 (KRAS G12V) (Homo sapiens, UniProt P01116, G12V).
T3 construct: pERK1/2 HTRF read-out
Description: Assay of intracellular pERK1/2 (Thr202/Tyr204) phosphorylation in NCI-H441 cells (KRAS G12V). The conditions noted are these: pERK1/2, 2 days, read-out: NCI-H441 (KRAS G12V) IC50. The essentials: as §1

T1 sequence (P01116 1-188 isoform P01116-2 G12C): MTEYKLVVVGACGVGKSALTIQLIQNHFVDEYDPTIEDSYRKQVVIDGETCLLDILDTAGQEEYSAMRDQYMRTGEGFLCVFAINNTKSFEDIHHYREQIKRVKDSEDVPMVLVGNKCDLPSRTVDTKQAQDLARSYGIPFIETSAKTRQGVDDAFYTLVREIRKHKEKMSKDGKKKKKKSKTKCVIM
T2 sequence (P01116 1-188 isoform P01116-2 G12D): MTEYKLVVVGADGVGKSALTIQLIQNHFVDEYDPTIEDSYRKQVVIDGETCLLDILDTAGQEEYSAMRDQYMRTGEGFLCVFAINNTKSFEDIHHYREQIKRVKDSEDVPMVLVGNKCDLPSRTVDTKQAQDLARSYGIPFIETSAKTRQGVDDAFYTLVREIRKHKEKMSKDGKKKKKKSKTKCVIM
T3 sequence (P01116 1-188 isoform P01116-2 G12V): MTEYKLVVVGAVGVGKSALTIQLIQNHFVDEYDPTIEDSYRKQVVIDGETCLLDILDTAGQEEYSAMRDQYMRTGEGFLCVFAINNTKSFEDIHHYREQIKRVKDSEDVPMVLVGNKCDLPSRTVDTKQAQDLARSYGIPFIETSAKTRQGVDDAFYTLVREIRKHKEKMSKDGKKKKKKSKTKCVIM

With `Cc1cc2[nH]ncc2c(-c2nc3c4c(nc(OC[C@@]56CCCN5C[C@H](F)C6)nc4c2F)N(C(C)c2cccnc2N)[C@H]2CCC[C@H]2O3)c1C(F)(F)F` (stereo partly drawn) [Compound 389], the values for the IC50 in assay [1], in assay [2] and in assay [3] were 60 nM, greater than 100 nM and greater than 100 nM, respectively.
For the compound `Cc1cc2[nH]ncc2c(-c2nc3c4c(nc(OC[C@@]56CCCN5C[C@H](F)C6)nc4c2F)N([C@H](C)c2cccnc2N)[C@@H](C2CC2)CO3)c1C(F)(F)F` [Compound 390], the IC50 in assay [1] is 11 nM; in assay [2], greater than 100 nM; in assay [3] it was 31 nM.
For `Cc1cc2[nH]ncc2c(-c2nc3c4c(nc(OC[C@@]56CCCN5C[C@H](F)C6)nc4c2F)N([C@@H](C)c2cccnc2N)[C@@H](C2CC2)CO3)c1C(F)(F)F` [Compound 391] the same measures were greater than 100 nM, greater than 100 nM and greater than 100 nM.
On to `Cc1cc2[nH]ncc2c(-c2nc3c4c(nc(OC[C@@]56CCCN5C[C@H](F)C6)nc4c2F)N(C(C)c2cccnc2N)[C@@H]2COCC[C@H]2O3)c1C(F)(F)F` (stereo partly drawn) [Compound 392], for which the IC50 in assay [1], in assay [2] and in assay [3] was greater than 100 nM in each case.
As for `Cc1cc2[nH]ncc2c(-c2nc3c4c(nc(OC[C@@]56CCCN5C[C@H](F)C6)nc4c2F)N(C(C)c2cccnc2N)[C@H]2CCC[C@@H]2O3)c1C(F)(F)F` (stereo partly drawn) [Compound 393], the IC50 in assay [1], in assay [2] and in assay [3] was greater than 100 nM throughout.
Turning to `Cc1c(C(F)(F)F)c(-c2nc3c4c(nc(OCC5(CN(C)CCO)CC5)nc4c2F)N(C(C)c2cccnc2N)[C@@H](C)CO3)c2cn[nH]c2c1F` (stereo partly drawn) [Compound 394, (*)2-(((1-((((9S)-10-(1-(2-aminopyridin-3-yl)ethyl)-4-fluoro-5-(7-fluoro-6-methyl-5-(trifluoromethyl)-1H-indazol-4-yl)-9-methyl-9,10-dihydro-8H-7-oxa-1,3,6,10-tetraazacyclohepta[de]naphthalen-2-yl)oxy)methyl)cyclopropyl)methyl)(methyl)amino)ethan-1-ol], the IC50 in assay [1] was 1 nM; in assay [2], 36 nM; in assay [3], 2 nM.
For `Cc1c(C(F)(F)F)c(-c2nc3c4c(nc(OCC5(CN(C)C6CC6)CC5)nc4c2F)N(C(C)c2cccnc2N)[C@@H](C)CO3)c2cn[nH]c2c1F` (stereo partly drawn) [Compound 395] the same measures were 1 nM, 21 nM and 4 nM.
Consider `Cc1c(C(F)(F)F)c(-c2nc3c4c(nc(OCC5(CN(C)C)CC5)nc4c2F)N(C(C)c2cccnc2N)[C@@H](C)CO3)c2cn[nH]c2c1F` (stereo partly drawn) [Compound 396], for which the 50% inhibitory concentration (IC50) is less than 0.457 nM in assay [1], 6 nM in assay [2] and 1 nM in assay [3].
For `CCc1c(F)ccc2cc(O)cc(-c3nc4c5c(nc(OCC6(CN(C)C7CC7)CC6)nc5c3F)N(C(C)c3cccnc3N)[C@@H](C)CO4)c12` (stereo partly drawn) [Compound 397] the same measures were less than 0.457 nM, 0.7 nM and 0.8 nM.
On the same counts, the results for `CC(c1cccnc1N)N1c2nc(OC[C@@]34CCCN3C[C@H](F)C4)nc3c(F)c(-c4c5ccccc5cc5[nH]ncc45)nc(c23)O[C@H]2CCC[C@@H]21` (stereo partly drawn) [Compound 398] are 212 nM, 264 nM and 472 nM.
For `C[C@H](c1cccnc1N)N1c2nc(OC[C@@]34CCCN3C[C@H](F)C4)nc3c(F)c(-c4c5ccccc5cc5[nH]ncc45)nc(c23)O[C@@H]2CCC[C@@H]21` [Compound 399] the same measures were 65 nM, 403 nM and 57 nM.
As to `C[C@@H](c1cccnc1N)N1c2nc(OC[C@@]34CCCN3C[C@H](F)C4)nc3c(F)c(-c4c5ccccc5cc5[nH]ncc45)nc(c23)O[C@@H]2CCC[C@@H]21` [Compound 400], the IC50 in assay [1] is 676 nM; in assay [2], 831 nM; in assay [3], greater than 1000 nM.
On the same counts, the results for `Cc1n[nH]c2cc3ccccc3c(-c3nc4c5c(nc(OC[C@@]67CCCN6C[C@H](F)C7)nc5c3F)N(C(C)c3cccnc3N)[C@@H](C)CO4)c12` (stereo partly drawn) [Compound 401] are 0.3 nM, 0.3 nM and 0.4 nM.
For `Cc1n[nH]c2cc3ccccc3c(-c3cc4nc(OC[C@@]56CCCN5C[C@H](F)C6)nc5c4c(n3)OC[C@H](C)N5C(C)c3cccnc3N)c12` (stereo partly drawn) [Compound 402] the same measures were 0.4 nM, 0.4 nM and 0.6 nM.
For `CC(c1cccnc1N)N1c2nc(OC[C@@]34CCCN3C[C@H](F)C4)nc3cc(-c4c5ccccc5cc5[nH]nc(C6CC6)c45)nc(c23)OC[C@@H]1C` (stereo partly drawn) [Compound 403] the same measures were 112 nM, 997 nM and 308 nM.

By IC50 is commonly meant the midpoint of a concentration-inhibition curve.
